These results are taken from patent US7795446B2, “Benzimidazole derivatives useful as selective androgen receptor modulators (SARMS)” (priority 2004, dated 2010).

The subject of the experiment is ventral prostate and seminal vesicle weights, testosterone propionate-treated castrated male Sprague Dawley rats. Put plainly: Ventral Prostate and Seminal Vesicle Weight In Vivo Assay. The settings on record: percent inhibition of testosterone-enhanced prostate weight; immature castrated male rats; test compound usually orally 40 mg/kg (2 mg/day) once daily for five days plus testosterone propionate 2 mg/kg s.c. As to the method:
Ventral Prostate and Seminal Vesicle Weight In Vivo Assay
Immature (approximately 50 g) castrated male Sprague Dawley rats (Charles River) were treated once daily for five days with test compound (usually given orally at 40 mg/kg in a volume of 0.3 mL, in 30% cyclodextrin or 0.5% methylcellulose vehicle) and with testosterone propionate (given subcutaneously by injection at the nape of the neck at 2 mg/kg, in a volume of 0.1 mL in sesame oil). On the sixth day, the rats were euthanized by asphyxiation in carbon dioxide. Ventral prosatates and seminal vesicles were removed and their wet weights determined. Test compound activity was determined as the percent inhibition of testosterone-enhanced tissue weights, with a vehicle-treated control group set to zero percent and a testosterone alone-treated control group set to 100%.
Representative compounds of the present invention were tested according to the procedure described, with results as listed in Table 7 below. A test compound is listed as “active” if the non weight adjusted prostate weight was ≦40 mg or the % Inhibition prostate weight, body weight adjusted was ≧40%@ 2 mg/day dosage. ID50's, if determined, of ≦15 mg/day also indicated an “active” compound.

For “3,3,3-Trifluoro-2-methoxy-2-phenyl-propionic acid 1-(5,6-dichloro-1H-benzamidazol-2-yl)-2,2,2-trifluoro-1-methyl-ethyl ester [Compound 107]”, the outcome was active.
As for `CSCC(C)(O)c1nc2cc(Cl)c(Cl)cc2n1C` (stereo not shown) [Compound 12], the result was active.
With `Cn1c(C(C)(O)CSCc2ccccc2)nc2cc(Cl)c(Cl)cc21` (stereo not shown) [Compound 23] the entry was “active”.
Next, `O=[N+]([O-])c1cc2nc(C(O)C(F)(F)F)[nH]c2cc1[N+](=O)[O-]` (stereo not shown) [Compound 155, 1-(5,6-Dinitro-1H-benzoimidazol-2-yl-)2,2,2-trifluoro-ethanol]: “inactive”.
